IC50 and inhibition data for 36 molecules are collected here from patent publication US6130239A, “4-Alkenyl- and 4-alkynyloxindoles” (Hoffmann-La Roche Inc., priority 1999, dated 2000).

Where a name gives a salt, the structure may show the parent alone.

In one experiment the target is T1, Cyclin E/CDK2 (Homo sapiens, UniProt P24941).
T1 construct: made in house; host or cells: insect cells
Kind of experiment: CDK2 FlashPlate Assay (inhibition of Rb phosphorylation by Cyclin E/CDK2). The experiment is classed as biochemical. Particulars: Table IA; recombinant human Cyclin E/CDK2, Rb substrate, 25 minutes room temperature.
Take `COc1cc[nH]c1/C=C1\C(=O)Nc2cccc(C#CCN)c21` [II, (Z)-4-(3-Amino-1-propynyl)-1,3-dihydro-3-[(3-methoxy-1H-pyrrol-2-yl)methylene]-2H-indol-2-one trifluoroacetate salt]: the 50% inhibitory concentration (IC50) (as a rule, the concentration that gives 50% inhibition) was < 4 µM.

For the molecule `COc1cc[nH]c1/C=C1\C(=O)Nc2cccc(C#CCCC(=O)O)c21` [H, (Z)-5-[2,3-Dihydro-3-[(3-methoxy-1H-pyrrol-2-yl)methylene]-2-oxo-1H-indol-4-yl]-4-pentynoic acid], the IC50 was < 4 µM.

For the molecule `COC(=O)CCC#Cc1cccc2c1/C(=C/c1[nH]ccc1OC)C(=O)N2` [F, (Z)-5-[2,3-Dihydro-3-[(3-methoxy-1H-pyrrol-2-yl)methylene]-2-oxo-1H-indol-4-yl]-4-pentynoic acid methyl ester], the IC50 was < 4 µM.

Consider `COc1cc[nH]c1/C=C1\C(=O)Nc2ccc(NC(=O)c3ccncc3)c(C#CCO)c21` [DD, (Z)-N-[2,3-Dihydro-4-(3-hydroxy-1-propynyl)-3-[(3-methoxy-1H-pyrrol-2-yl)methylene]-2-oxo-1H-indol-5-yl]-4-pyridinecarboxamide], for which the half-inhibitory concentration (IC50) was < 4 µM.

On to `CCC(O)C#Cc1cccc2c1/C(=C/c1[nH]ccc1OC)C(=O)N2` (racemic) [R, rac-(Z)-1,3-Dihydro-4-(3-hydroxy-1-pentynyl)-3-[(3-methoxy-1H-pyrrol-2-yl)methylene]-2H-indol-2-one], for which the IC50 was < 4 µM.

Regarding `COc1cc[nH]c1/C=C1\C(=O)Nc2cccc(C#CCCCCO)c21` [A, (Z)-1,3-Dihydro-4-(6-hydroxy-1-hexynyl)-3-[(3-methoxy-1H-pyrrol-2-yl)methylene]-2H-indol-2-one], the IC50 was < 4 µM.

For `COc1cc[nH]c1/C=C1\C(=O)Nc2cccc(C#CC(C)(C)O)c21` [L, (Z)-1,3-Dihydro-4-(3-hydroxy-3-methyl-1-butynyl)-3-[(3-methoxy-1H-pyrrol-2-yl)methylene]-2H-indol-2-one], the IC50 is < 4 µM.

In the case of `COc1cc[nH]c1/C=C1\C(=O)Nc2cccc(C#CC3(O)CCCC3)c21` [AA, (Z)-1,3-Dihydro-4-[(1-hydroxycyclopentyl)ethynyl]-3-[(3-methoxy-1H-pyrrol-2-yl)methylene]-2H-indol-2-one], the 50% inhibitory concentration (IC50) is < 4 µM.

Turning to `COC(=O)CCC#Cc1c(N)ccc2c1/C(=C/c1[nH]ccc1OC)C(=O)N2` [FF, (Z)-5-[5-Amino-2,3-dihydro-3-[(3-methoxy-1H-pyrrol-2-yl)methylene]-2-oxo-1H-indol-4-yl]-4-pentynoic acid methyl ester], the IC50 is < 4 µM.

Take `CNC(=O)OCC#Cc1cccc2c1/C(=C/c1[nH]ccc1OC)C(=O)N2` [NN, (Z)-N-Methylcarbamic acid 3-[2,3-dihydro-3-[(3-methoxy-1H-pyrrol-2-yl)methylene]-2-oxo-1H-indol-4-yl]-2-propynyl ester]: the IC50 is < 4 µM.

Regarding `COC(=O)C(CC#Cc1cccc2c1/C(=C/c1[nH]ccc1OC)C(=O)N2)C(=O)OC` [V, (Z)-[3-[2,3-Dihydro-3-[(3-methoxy-1H-pyrrol-2-yl)methylene]-2-oxo-1H-indol-4-yl]-2-propynyl]propanedioic acid dimethyl ester], the 50% inhibitory concentration (IC50) is < 4 µM.

`CCCCCC(O)C#Cc1cccc2c1/C(=C/c1[nH]ccc1OC)C(=O)N2` (racemic) [Q, rac-(Z)-1,3-Dihydro-4-(3-hydroxy-1-octynyl)-3-[(3-methoxy-1H-pyrrol-2-yl)methylene]-2H-indol-2-one]: the IC50 is < 4 µM.

For the molecule `COCC#Cc1cccc2c1/C(=C/c1[nH]ccc1OC)C(=O)N2` [X, (Z)-1,3-Dihydro-4-(3-methoxy-1-propynyl)-3-[(3-methoxy-1H-pyrrol-2-yl)methylene]-2H-indol-2-one], the half-inhibitory concentration (IC50) was < 4 µM.

Consider `COc1cc[nH]c1/C=C1\C(=O)Nc2cccc(C#CCO)c21` [Y, (Z)-1,3-Dihydro-4-(3-hydroxy-1-propynyl)-3-[(3-methoxy-1H-pyrrol-2-yl)methylene]-2H-indol-2-one], for which the concentration for half-maximal inhibition (IC50) is < 4 µM.

Take `COc1cc[nH]c1/C=C1\C(=O)Nc2cccc(C#CCNCc3ccccc3)c21` [KK, (Z)-1,3-Dihydro-3-[(3-methoxy-1H-pyrrol-2-yl)methylene]-4-[3-(N-phenylmethylamino)-1-propynyl]-2H-indol-2-one]: the half-inhibitory concentration (IC50) was < 4 µM.

Consider `COc1cc[nH]c1/C=C1\C(=O)Nc2cccc(C#CCCO)c21` [C, (Z)-1,3-Dihydro-4-(4-hydroxy-1-butynyl)-3-[(3-methoxy-1H-pyrrol-2-yl)methylene]-2H-indol-2-one], for which the IC50 is < 4 µM.

Take `COC(=O)NCC#Cc1cccc2c1/C(=C/c1[nH]ccc1OC)C(=O)N2` [LL, (Z)-[3-[2,3-Dihydro-3-[(3-methoxy-1H-pyrrol-2-yl)methylene]-2-oxo-1H-indol-4-yl]-2-propynyl]carbamic acid methyl ester]: the IC50 is < 4 µM.

Regarding `C#CCOCCO` [Example 21, 3-(2-Hydroxyethoxy)-1-propyne], the IC50 is < 4 µM.

Turning to `CCCCC[C@H](O)C#Cc1cccc2c1/C(=C/c1[nH]ccc1OC)C(=O)N2` [U, (S)-(Z)-1,3-Dihydro-4-(3-hydroxy-1-octynyl)-3-[(3-methoxy-1H-pyrrol-2-yl)methylene]-2H-indol-2-one], the IC50 is < 4 µM.

For the molecule `Cc1nc[nH]c1/C=C1\C(=O)Nc2ccc(F)c(C#CCNC(N)=O)c21` [ZZ, (Z)-[3-[5-fluoro-2,3-dihydro-3-[(4-methyl-1H-imidazol-5-yl)methylene]-2-oxo-1H-indol-4-yl]-2-propynyl]urea], the half-inhibitory concentration (IC50) is < 4 µM.

`COc1cc[nH]c1/C=C1\C(=O)Nc2cccc(C#CCCC(N)=O)c21` [J, (Z)-5-[2,3-Dihydro-3-[(3-methoxy-1H-pyrrol-2-yl)methylene]-2-oxo-1H-indol-4-yl]-4-pentynamide]: the half-inhibitory concentration (IC50) is < 4 µM.

Turning to `CNCC#Cc1cccc2c1/C(=C/c1[nH]ccc1OC)C(=O)N2` [JJ, (Z)-1,3-Dihydro-3-[(3-methoxy-1H-pyrrol-2-yl)methylene]-4-[3-(N-methylamino)-1-propynyl]-2H-indol-2-one trifluoroacetate salt], the half-inhibitory concentration (IC50) was < 4 µM.

Take `COc1cc[nH]c1/C=C1\C(=O)Nc2cccc(C#CCCCO)c21` [Compound B, (Z)-1,3-Dihydro-4-(5-hydroxy-1-pentynyl)-3-[(3-methoxy-1H-pyrrol-2-yl)methylene]-2H-indol-2-one]: the IC50 was < 4 µM.

`COc1cc[nH]c1/C=C1\C(=O)Nc2cccc(C#CCCCC(N)=O)c21` [K, (Z)-6-[2,3-Dihydro-3-[(3-methoxy-1H-pyrrol-2-yl)methylene]-2-oxo-1H-indol-4-yl]-5-hexynamide]: the IC50 was < 4 µM.

With `COc1cc[nH]c1/C=C1\C(=O)Nc2cccc(C#CCOC(N)=O)c21` [MM, (Z)-Carbamic acid 3-[2,3-dihydro-3-[(3-methoxy-1H-pyrrol-2-yl)methylene]-2-oxo-1H-indol-4-yl]-2-propynyl ester], the IC50 is < 4 µM.

Turning to `CCC(C)(O)C#Cc1cccc2c1/C(=C/c1[nH]ccc1OC)C(=O)N2` (racemic) [D, rac-(Z)-1,3-Dihydro-4-(3-hydroxy-3-methyl-1-pentynyl)-3-[(3-methoxy-1H-pyrrol-2-yl)methylene]-2H-indol-2-one], the half-inhibitory concentration (IC50) was < 4 µM.

`COc1cc[nH]c1/C=C1\C(=O)Nc2ccc(N)c(C#CCO)c21` [Compound BB, (Z)-5-Amino-1,3-dihydro-4-(3-hydroxy-1-propynyl)-3-[(3-methoxy-1H-pyrrol-2-yl)methylene]-2H-indol-2-one]: the IC50 was < 4 µM.

In the case of `COc1cc[nH]c1/C=C1\C(=O)Nc2cccc(C#CCCCC(=O)O)c21` [G, (Z)-6-[2,3-Dihydro-3-[(3-methoxy-1H-pyrrol-2-yl)methylene]-2-oxo-1H-indol-4-yl]-5-hexynoic acid], the IC50 is < 4 µM.

As to `COc1cc[nH]c1/C=C1\C(=O)Nc2cccc(C#CC(C)(O)CC(C)C)c21` (racemic) [O, rac-(Z)-1,3-Dihydro-4-(3,5-dimethyl-3-hydroxy-1-hexynyl)-3-[(3-methoxy-1H-pyrrol-2-yl)methylene]-2H-indol-2-one], the IC50 is < 4 µM.

As for `CCCC(C)(O)C#Cc1cccc2c1/C(=C/c1[nH]ccc1OC)C(=O)N2` (racemic) [N, rac-(Z)-1,3-Dihydro-4-(3-hydroxy-3-methyl-1-hexynyl)-3-[(3-methoxy-1H-pyrrol-2-yl)methylene]-2H-indol-2-one], the half-maximal inhibitory concentration (IC50) is < 4 µM.

Regarding `COc1cc[nH]c1/C=C1\C(=O)Nc2cccc(C#CCC(C(=O)O)C(=O)O)c21` [W, (Z)-[3-[2,3-Dihydro-3-[(3-methoxy-1H-pyrrol-2-yl)methylene]-2-oxo-1H-indol-4-yl]-2-propynyl]propanedioic acid], the IC50 was < 4 µM.

Turning to `COc1cc[nH]c1/C=C1\C(=O)Nc2cccc(C#CC3(O)CCCCC3)c21` [M, (Z)-1,3-Dihydro-4-[(1-hydroxycyclohexyl)ethynyl]-3-[(3-methoxy-1H-pyrrol-2-yl)methylene]-2H-indol-2-one], the IC50 was < 4 µM.

Take `COC(=O)CCCC#Cc1cccc2c1/C(=C/c1[nH]ccc1OC)C(=O)N2` [E, (Z)-6-[2,3-Dihydro-3-[(3-methoxy-1H-pyrrol-2-yl)methylene]-2-oxo-1H-indol-4-yl]-5-hexynoic acid methyl ester]: the half-maximal inhibitory concentration (IC50) is < 4 µM.

Consider `COc1cc[nH]c1/C=C1\C(=O)Nc2ccc(NC(=O)Cc3cccs3)c(C#CCCC(=O)O)c21` [HH, (Z)-5-[2,3-Dihydro-3-[(3-methoxy-1H-pyrrol-2-yl)methylene]-2-oxo-5-[(2-thienylacetyl)amino]-1H-indol-4-yl]-4-pentynoic acid], for which the IC50 is < 4 µM.

The same experiment, now with this note: Table IB; concentration ≤1.0 μM.
For the molecule `COc1cc[nH]c1/C=C1\C(=O)Nc2ccc([N+](=O)[O-])c(C#CCO)c21` [Z, (Z)-1,3-Dihydro-4-(3-hydroxy-1-propynyl)-3-[(3-methoxy-1H-pyrrol-2-yl)methylene]-5-nitro-2H-indol-2-one], the inhibition (usually the change of the read-out against control, counted positive when it falls) at 1 µM was > 90%.

Turning to `COC(=O)CCC#Cc1c([N+](=O)[O-])ccc2c1/C(=C/c1[nH]ccc1OC)C(=O)N2` [EE, (Z)-5-[2,3-Dihydro-3-[(3-methoxy-1H-pyrrol-2-yl)methylene]-5-nitro-2-oxo-1H-indol-4-yl]-4-pentynoic acid methyl ester], the inhibition at 1 µM was > 60%.
